Positions count from the first letter of the chain named.
Experiments:
[1] = molecular target: T1, TRPV3 Y594 alanine mutation (Homo sapiens, UniProt Q8NET8, Y594A); test: Whole-cell recording of TRPV3 Y594 alanine mutant; type: cell-based; conditions: 1 mM 2-APB, ± 80 mV
T1 construct: YFP or GFP; expressed in transfected cells; host or cells: HEK293T
T1 sequence (Q8NET8 1-790 Y594A): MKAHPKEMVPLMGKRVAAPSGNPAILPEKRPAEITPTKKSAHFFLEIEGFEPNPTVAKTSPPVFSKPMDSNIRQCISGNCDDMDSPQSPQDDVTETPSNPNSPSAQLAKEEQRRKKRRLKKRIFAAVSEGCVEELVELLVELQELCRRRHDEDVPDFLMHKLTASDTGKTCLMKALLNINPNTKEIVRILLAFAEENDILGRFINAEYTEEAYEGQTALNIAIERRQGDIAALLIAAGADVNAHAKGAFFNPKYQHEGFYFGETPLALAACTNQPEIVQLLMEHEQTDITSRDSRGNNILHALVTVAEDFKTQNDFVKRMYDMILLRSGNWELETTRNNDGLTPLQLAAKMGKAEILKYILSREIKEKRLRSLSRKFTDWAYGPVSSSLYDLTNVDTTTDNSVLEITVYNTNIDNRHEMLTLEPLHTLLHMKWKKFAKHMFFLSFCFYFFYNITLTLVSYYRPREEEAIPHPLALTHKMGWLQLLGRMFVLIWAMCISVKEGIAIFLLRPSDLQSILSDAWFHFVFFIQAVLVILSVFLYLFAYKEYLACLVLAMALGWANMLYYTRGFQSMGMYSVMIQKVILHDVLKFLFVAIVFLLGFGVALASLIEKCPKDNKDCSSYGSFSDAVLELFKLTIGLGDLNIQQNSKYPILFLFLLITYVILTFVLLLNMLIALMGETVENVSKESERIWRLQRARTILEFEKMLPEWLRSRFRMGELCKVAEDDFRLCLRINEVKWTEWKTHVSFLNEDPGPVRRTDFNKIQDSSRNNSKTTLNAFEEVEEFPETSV
Text: (§1) As we mentioned above, HCQ may act as a pore blocker of TRPV3. To probe the binding configuration of HCQ to TRPV3, we carried out molecular docking using Rosetta suite (https://rosettacommons.org) ([21]) and validated the docking models with point mutations in TRPV3 (Fig. 4A). […] Furthermore, when we introduced L670A to L591A mutant, we also observed a left shift on the concentration–response curve on this double mutant as compared to L591A mutant (Fig. 4H).
(§2) Figure 4 Residues of the pore domain are critical for HCQ inhibition on TRPV3.A, left panel, docking model of HCQ to the pore domain of TRPV3 structure (6uw4). Right panels, top view and side view of the HCQ-binding pocket. B-J, representative whole-cell recording of TRPV3 and mutants in response to 1 mM 2-APB, the mixture of 1 mM 2-APB and concentration gradients of HCQ with the holding potential of ± 80 mV. K, concentration–response curves of HCQ in WT TRPV3 and mutants (n = 3–5 cells). L, quantification of the inhibitory ratio of HCQ (100 μM) on WT, L591A, and N671Q. […]
(§3) All data from whole-cell recordings were analyzed in Igor Pro (WaveMetrics). IC50 values were determined by fitting the Hill equation to concentration-response relationships. […]

TRPV3 L591A mutant = molecular target: T2, TRPV3 L591A mutant (Homo sapiens, UniProt Q8NET8, L591A); test: Whole-cell recording of TRPV3 L591A mutant; type: cell-based
T2 construct: YFP or GFP; expressed in transfected cells; host or cells: HEK293T
T2 sequence (Q8NET8 1-790 L591A): T1 sequence (Q8NET8 1-790 Y594A) with L591A, A594Y
Text: as §1, §2, §3

IC50 [1]: 1.57 ± 0.08 µM
inhibition at 100 µM (TRPV3 L591A mutant; 100 μM HCQ): 28.4%
IC50 (TRPV3 L591A mutant; 1 mM 2-APB, ± 80 mV): 203 ± 10.8 µM
Structure (SMILES): CCN(CCO)CCCC(C)Nc1ccnc2cc(Cl)ccc12 (stereo not drawn) [HCQ, hydroxychloroquine]
